What was measured:
HDAC (HeLa cell extract) = assay: Selectivity assay: HDAC activity, fluorescent assay (Fluor de Lys); format: biochemical; settings: single concentration @100 (μM)
Procedure: Alternatively, the activity of the compounds as HDAC inhibitors was determined using a commercially available fluorescent assay kit (Fluor de Lys™, BioMol Research Labs, Inc., Plymouth Meeting, USA). HeLa extract was incubated for 1 hour at 37° C. in assay buffer (25 mM HEPES, 137 mM NaCl, 2.7 mM KCl, 1 mM MgCl2, pH 8.0) with 15 μM acetylated substrate in the presence of test compound (HDAC inhibitor). The extent of deacetylation was determined by the addition of 50 μL of a 1-in-500 dilution of Developer, and subsequent measurement of the fluorescence (excitation 355 nm, emission 460 nm), according to the instructions provided with the kit.
The HeLa cell extract was made from HeLa cells (ATCC Ref. No. CCL-2) by freeze-thawing three times in 60 mM Tris.HCl, pH 8.0, 450 mM NaCl, 30% glycerol. Two cell volumes of extraction buffer were used, and particulate material was centrifuged out (20,800 g, 4° C., 10 minutes). The supernatant extract having deacetylase activity was aliquoted and frozen for storage.
(§1) Percent activity (% activity) for each test compound was calculated as:
(§2) % activity={(S^C−B)/(S^o−B)}×100
(§3) wherein S^C denotes signal measured in the presence of enzyme and the compound being tested, S^o denotes signal measured in the presence of enzyme but in the absence of the compound being tested, and B denotes the background signal measured in the absence of both enzyme and compound being tested. The IC50 corresponds to the concentration which achieves 50% activity.

MMP-12 = MMP-12 (Homo sapiens, UniProt P39900); assay: Matrix metalloprotease panel, single concentration; format: biochemical
MMP-12, sequence (P39900 106-470, species assumed): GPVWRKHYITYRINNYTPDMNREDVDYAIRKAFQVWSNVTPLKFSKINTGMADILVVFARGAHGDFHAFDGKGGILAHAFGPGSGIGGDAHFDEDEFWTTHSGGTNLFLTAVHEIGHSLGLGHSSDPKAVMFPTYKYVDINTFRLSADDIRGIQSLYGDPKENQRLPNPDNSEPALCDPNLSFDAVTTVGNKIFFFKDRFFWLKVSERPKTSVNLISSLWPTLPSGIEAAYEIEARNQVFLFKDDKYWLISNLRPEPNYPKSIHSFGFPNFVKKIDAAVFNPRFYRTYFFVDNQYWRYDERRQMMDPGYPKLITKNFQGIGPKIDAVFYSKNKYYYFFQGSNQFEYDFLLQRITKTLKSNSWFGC
Procedure: (§4) Several compounds were tested at a single concentration against a panel of matrix metalloproteases including angiotensin converting enzyme (ACE) and the percentage inhibition determined.

MMP-8 = MMP-8 (Homo sapiens, UniProt P22894); assay: Matrix metalloprotease panel, single concentration; format: biochemical
MMP-8, sequence (P22894 101-467, species assumed): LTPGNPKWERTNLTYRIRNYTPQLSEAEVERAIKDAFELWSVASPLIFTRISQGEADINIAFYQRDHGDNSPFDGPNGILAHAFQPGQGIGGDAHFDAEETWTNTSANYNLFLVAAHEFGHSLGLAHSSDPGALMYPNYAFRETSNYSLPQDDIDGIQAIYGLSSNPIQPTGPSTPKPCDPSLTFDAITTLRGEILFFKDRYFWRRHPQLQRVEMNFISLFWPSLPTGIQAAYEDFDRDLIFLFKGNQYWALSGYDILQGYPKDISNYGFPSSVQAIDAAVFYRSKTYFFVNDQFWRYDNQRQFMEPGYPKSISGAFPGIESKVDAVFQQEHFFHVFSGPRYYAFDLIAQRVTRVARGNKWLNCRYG
Procedure: as §4

MMP-10 = MMP-10 (Homo sapiens, UniProt P09238); assay: Matrix metalloprotease panel, single concentration; format: biochemical
MMP-10, sequence (P09238 99-476, species assumed): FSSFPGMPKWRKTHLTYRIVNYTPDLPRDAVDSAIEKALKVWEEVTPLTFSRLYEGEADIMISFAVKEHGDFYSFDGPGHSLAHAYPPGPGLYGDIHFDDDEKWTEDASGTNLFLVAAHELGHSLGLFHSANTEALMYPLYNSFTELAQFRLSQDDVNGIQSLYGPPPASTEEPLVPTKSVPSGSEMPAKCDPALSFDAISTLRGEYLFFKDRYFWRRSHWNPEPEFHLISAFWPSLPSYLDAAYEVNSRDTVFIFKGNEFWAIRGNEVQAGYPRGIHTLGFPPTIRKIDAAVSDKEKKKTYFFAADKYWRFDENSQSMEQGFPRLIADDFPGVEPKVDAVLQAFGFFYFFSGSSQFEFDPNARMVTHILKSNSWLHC
Procedure: as §4

MMP-3 = MMP-3 (Homo sapiens, UniProt P08254); assay: Matrix metalloprotease panel, single concentration; format: biochemical
MMP-3, sequence (P08254 100-477, species assumed): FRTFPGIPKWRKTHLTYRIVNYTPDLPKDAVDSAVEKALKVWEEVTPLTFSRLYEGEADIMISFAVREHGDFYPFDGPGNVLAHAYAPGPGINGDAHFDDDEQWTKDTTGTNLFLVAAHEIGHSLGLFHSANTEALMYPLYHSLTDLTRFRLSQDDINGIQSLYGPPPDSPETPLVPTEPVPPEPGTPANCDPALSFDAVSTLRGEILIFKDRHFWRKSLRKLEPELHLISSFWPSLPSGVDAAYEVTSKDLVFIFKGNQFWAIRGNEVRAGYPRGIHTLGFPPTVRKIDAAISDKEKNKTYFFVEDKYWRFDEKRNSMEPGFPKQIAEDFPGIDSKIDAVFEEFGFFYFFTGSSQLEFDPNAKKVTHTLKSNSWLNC
Procedure: as §4

[1] = biological target: angiotensin converting enzyme (ACE) (Homo sapiens, UniProt P12821); assay: Matrix metalloprotease panel, single concentration; format: biochemical
angiotensin converting enzyme (ACE), sequence (P12821 30-1306, species assumed): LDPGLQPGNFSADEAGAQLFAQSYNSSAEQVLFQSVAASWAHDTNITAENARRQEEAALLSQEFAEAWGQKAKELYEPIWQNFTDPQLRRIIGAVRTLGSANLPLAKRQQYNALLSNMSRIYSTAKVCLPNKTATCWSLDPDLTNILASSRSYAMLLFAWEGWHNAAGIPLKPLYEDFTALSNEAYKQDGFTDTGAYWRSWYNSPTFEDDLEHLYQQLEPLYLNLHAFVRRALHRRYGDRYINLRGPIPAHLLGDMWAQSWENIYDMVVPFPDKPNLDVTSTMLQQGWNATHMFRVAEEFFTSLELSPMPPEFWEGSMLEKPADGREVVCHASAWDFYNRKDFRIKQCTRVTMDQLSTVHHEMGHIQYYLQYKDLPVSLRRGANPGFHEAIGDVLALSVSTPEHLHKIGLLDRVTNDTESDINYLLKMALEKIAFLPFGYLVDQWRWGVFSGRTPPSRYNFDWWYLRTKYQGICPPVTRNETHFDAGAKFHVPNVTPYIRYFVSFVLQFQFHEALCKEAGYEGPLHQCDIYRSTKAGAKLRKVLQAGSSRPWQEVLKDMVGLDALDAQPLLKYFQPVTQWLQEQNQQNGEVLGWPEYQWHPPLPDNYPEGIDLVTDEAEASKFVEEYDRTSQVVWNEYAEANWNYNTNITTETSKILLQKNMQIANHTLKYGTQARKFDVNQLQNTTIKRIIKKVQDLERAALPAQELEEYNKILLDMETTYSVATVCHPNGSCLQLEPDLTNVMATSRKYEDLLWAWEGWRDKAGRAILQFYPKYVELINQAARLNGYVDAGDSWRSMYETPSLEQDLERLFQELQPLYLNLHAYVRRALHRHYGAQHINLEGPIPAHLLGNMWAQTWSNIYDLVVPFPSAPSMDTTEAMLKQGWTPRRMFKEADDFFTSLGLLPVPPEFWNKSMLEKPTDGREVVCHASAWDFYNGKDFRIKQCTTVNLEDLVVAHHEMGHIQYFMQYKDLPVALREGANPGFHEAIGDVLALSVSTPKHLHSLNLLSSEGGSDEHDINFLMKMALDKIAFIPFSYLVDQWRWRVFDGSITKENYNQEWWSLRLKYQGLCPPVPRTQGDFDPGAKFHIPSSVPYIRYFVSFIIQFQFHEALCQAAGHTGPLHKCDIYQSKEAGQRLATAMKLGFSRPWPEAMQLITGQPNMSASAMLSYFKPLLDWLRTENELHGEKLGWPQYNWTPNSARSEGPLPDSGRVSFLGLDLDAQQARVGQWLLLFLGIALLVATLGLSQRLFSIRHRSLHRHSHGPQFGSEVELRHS
Procedure: as §4

MMP-1 = biological target: T1, MMP-1 (Homo sapiens, UniProt P03956); assay: Matrix metalloprotease panel, single concentration; format: biochemical
T1 sequence (P03956 100-469): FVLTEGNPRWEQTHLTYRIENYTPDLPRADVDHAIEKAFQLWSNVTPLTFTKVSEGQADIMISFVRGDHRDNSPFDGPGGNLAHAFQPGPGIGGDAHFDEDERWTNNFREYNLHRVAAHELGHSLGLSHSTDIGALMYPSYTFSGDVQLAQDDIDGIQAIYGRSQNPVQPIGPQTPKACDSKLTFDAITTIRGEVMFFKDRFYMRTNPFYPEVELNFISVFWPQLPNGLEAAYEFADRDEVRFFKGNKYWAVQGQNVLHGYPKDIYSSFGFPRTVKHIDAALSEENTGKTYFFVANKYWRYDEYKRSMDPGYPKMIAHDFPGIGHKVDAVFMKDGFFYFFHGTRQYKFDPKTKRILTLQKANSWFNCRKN
Procedure: as §4

MMP-9 = MMP-9 (Homo sapiens, UniProt P14780); assay: Matrix metalloprotease panel, single concentration; format: biochemical
MMP-9, sequence (P14780 94-707, species assumed): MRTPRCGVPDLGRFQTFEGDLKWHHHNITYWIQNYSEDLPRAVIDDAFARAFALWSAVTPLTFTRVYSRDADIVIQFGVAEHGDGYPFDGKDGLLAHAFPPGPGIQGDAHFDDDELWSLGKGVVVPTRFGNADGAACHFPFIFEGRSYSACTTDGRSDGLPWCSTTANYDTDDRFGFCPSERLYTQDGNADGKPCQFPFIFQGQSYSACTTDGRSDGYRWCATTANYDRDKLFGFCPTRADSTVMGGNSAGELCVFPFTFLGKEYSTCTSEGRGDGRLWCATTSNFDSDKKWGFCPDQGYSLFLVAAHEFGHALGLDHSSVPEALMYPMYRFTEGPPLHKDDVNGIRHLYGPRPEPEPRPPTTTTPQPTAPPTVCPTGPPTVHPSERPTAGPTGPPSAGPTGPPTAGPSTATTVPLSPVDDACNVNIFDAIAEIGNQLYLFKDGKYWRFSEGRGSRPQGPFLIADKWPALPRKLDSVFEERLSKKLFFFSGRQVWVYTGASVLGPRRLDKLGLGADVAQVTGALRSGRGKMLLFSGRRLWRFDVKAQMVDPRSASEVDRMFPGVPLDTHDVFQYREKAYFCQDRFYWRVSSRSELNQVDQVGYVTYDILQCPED
Procedure: as §4

MMP-13 = MMP-13 (Homo sapiens, UniProt P45452); assay: Matrix metalloprotease panel, single concentration; format: biochemical
Procedure: as §4

MMP-7 = biological target: T2, MMP-7 (Homo sapiens, UniProt P09237); assay: Matrix metalloprotease panel, single concentration; format: biochemical
T2 sequence (P09237 95-267): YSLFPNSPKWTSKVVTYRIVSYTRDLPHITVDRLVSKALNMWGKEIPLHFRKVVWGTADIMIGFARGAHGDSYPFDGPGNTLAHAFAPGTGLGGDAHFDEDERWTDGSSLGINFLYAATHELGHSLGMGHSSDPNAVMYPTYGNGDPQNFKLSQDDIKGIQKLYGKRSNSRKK
Procedure: as §4

MMP-14 = MMP-14 (Homo sapiens, UniProt P50281); assay: Matrix metalloprotease panel, single concentration; format: biochemical
Procedure: as §4

MMP-2 = biological target: T3, MMP-2 (Homo sapiens, UniProt P08253); assay: Matrix metalloprotease panel, single concentration; format: biochemical
T3 sequence (P08253 110-660): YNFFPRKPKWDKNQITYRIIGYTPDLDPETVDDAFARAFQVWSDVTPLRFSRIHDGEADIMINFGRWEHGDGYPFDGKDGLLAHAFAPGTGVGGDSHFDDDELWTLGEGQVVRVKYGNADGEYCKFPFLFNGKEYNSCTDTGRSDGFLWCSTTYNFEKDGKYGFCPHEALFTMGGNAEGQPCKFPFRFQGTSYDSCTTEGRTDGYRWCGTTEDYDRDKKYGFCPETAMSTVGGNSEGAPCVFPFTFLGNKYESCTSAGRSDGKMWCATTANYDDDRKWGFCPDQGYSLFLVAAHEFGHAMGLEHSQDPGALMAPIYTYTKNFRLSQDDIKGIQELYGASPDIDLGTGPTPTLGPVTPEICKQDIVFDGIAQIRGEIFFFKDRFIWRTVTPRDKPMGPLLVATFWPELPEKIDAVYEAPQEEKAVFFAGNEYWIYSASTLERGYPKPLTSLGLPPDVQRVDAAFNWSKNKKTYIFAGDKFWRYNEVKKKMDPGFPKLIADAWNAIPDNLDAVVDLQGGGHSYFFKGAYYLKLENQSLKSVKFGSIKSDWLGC
Procedure: as §4

[2] = biological target: T4, Human recombinant TACE enzyme (Homo sapiens, UniProt P78536); assay: TACE assay (fluorescent peptide substrate); format: biochemical; settings: 3.5 h; for inhibition at 100 µM: single concentration @100 (μM), read-out: Av. TACE Inhibition, % @100; for inhibition at 2 µM: single concentration @2 (μM), read-out: Av. TACE Inhibition, % @2
T4 construct: purchased R and D Systems, Abingdon, UK 930-ADB
T4 sequence (P78536 215-671 limits assumed): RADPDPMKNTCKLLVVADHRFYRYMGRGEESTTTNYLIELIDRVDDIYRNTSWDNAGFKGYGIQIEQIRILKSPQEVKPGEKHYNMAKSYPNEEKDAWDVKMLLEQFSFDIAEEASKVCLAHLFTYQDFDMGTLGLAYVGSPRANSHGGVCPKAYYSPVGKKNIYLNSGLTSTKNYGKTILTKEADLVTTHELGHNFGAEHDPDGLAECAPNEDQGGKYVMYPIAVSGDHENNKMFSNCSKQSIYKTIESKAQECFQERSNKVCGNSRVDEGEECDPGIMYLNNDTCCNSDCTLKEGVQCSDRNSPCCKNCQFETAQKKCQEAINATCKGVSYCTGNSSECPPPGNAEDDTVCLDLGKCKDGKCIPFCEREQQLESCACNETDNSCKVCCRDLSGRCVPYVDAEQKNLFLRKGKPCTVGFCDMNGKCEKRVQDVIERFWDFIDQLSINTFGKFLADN
Procedure: The activity of the compounds as TACE inhibitors was determined using a commercially available peptide substrate (M-2255, Bachem UK Ltd, St. Helens, UK) and recombinant TACE enzyme (930-ADB, R and D Systems, Abingdon, UK). Human recombinant TACE enzyme (5 ng/30 μL) was incubated for 3.5 hour at 37° C. in assay buffer (25 mM Tris.HCl, 2.5 μM ZnCl2, 0.005% Brij 35, pH 8.0) with 5 μM substrate in the presence of test compound (TACE inhibitor). The extent of TACE activity was determined by measurement of the fluorescence (excitation 355 nm, emission 460 nm).
as §1, §2, §3

SMILES: O=C(CC1c2ccccc2S(=O)(=O)N1c1ccccc1)NO (stereo not drawn) [IX-001]
- Av. HDAC Inhibition, % @100 (HDAC (HeLa cell extract)): 10%@100
- inhibition at 5 µM (MMP-12): 56%
- inhibition at 5 µM (MMP-8): 30%
- inhibition at 5 µM (MMP-10): 0%
- inhibition at 5 µM (MMP-3): 1%
- inhibition at 5 µM [1]: 6%
- inhibition at 5 µM (MMP-1): 0%
- inhibition at 5 µM (MMP-9): 19%
- inhibition at 5 µM (MMP-13): 24%
- inhibition at 5 µM (MMP-7): 0%
- inhibition at 5 µM (MMP-14): 2%
- inhibition at 5 µM (MMP-2): 19%

SMILES: O=C(C[C@H]1c2ccccc2S(=O)(=O)N1c1ccccc1)NO [IX-002]
- Av. HDAC Inhibition, % @100 (HDAC (HeLa cell extract)): 43%@100

SMILES: O=C(C[C@@H]1c2ccccc2S(=O)(=O)N1c1ccccc1)NO [IX-003]
- Av. HDAC Inhibition, % @100 (HDAC (HeLa cell extract)): 44%@100

SMILES: O=C(CC1c2ccccc2S(=O)(=O)N1c1ccc2ccccc2c1)NO (stereo not drawn) [IX-004]
- Av. HDAC Inhibition, % @100 (HDAC (HeLa cell extract)): 32%@100

SMILES: COc1cccc(N2C(CC(=O)NO)c3ccccc3S2(=O)=O)c1 (stereo not drawn) [IX-009]
- Av. HDAC Inhibition, % @100 (HDAC (HeLa cell extract)): 24%@100
- inhibition at 100 µM [2]: 52%

SMILES: COc1ccc(N2C(CC(=O)NO)c3ccccc3S2(=O)=O)cc1 (stereo not drawn) [IX-010]
- Av. HDAC Inhibition, % @100 (HDAC (HeLa cell extract)): 17%@100

SMILES: O=C(CC1c2ccccc2S(=O)(=O)N1c1ccc(Cl)cc1)NO (stereo not drawn) [IX-012]
- Av. HDAC Inhibition, % @100 (HDAC (HeLa cell extract)): 11%@100

SMILES: O=C(CC1c2ccccc2S(=O)(=O)N1c1ccc(OC(F)(F)F)cc1)NO (stereo not drawn) [IX-020]
- Av. HDAC Inhibition, % @100 (HDAC (HeLa cell extract)): −2%@100

SMILES: CCCCOc1ccc(N2C(CC(=O)NO)c3ccccc3S2(=O)=O)cc1 (stereo not drawn) [IX-036]
- Av. HDAC Inhibition, % @100 (HDAC (HeLa cell extract)): −4%@100

SMILES: CC#CCOc1ccc(N2C(CC(=O)NO)c3ccccc3S2(=O)=O)cc1 (stereo not drawn) [IX-045]
- Av. HDAC Inhibition, % @100 (HDAC (HeLa cell extract)): 38%@100
- inhibition at 5 µM (MMP-12): 37%
- inhibition at 5 µM (MMP-8): 21%
- inhibition at 5 µM (MMP-10): 6%
- inhibition at 5 µM (MMP-3): 11%
- inhibition at 5 µM [1]: -8%
- inhibition at 5 µM (MMP-1): -4%
- inhibition at 5 µM (MMP-9): -2%
- inhibition at 5 µM (MMP-13): -12%
- inhibition at 5 µM (MMP-7): -5%
- inhibition at 5 µM (MMP-14): 0%
- inhibition at 5 µM (MMP-2): 10%

SMILES: Cc1cc(COc2ccc(N3C(CC(=O)NO)c4ccccc4S3(=O)=O)cc2)c2ccccc2n1 (stereo not drawn) [IX-048]
- melting point: 195 to 197 °C
- Av. HDAC Inhibition, % @100 (HDAC (HeLa cell extract)): 19%@100
- inhibition at 5 µM (MMP-12): 49%
- inhibition at 5 µM (MMP-8): 13%
- inhibition at 5 µM (MMP-10): 9%
- inhibition at 5 µM (MMP-3): 34%
- inhibition at 5 µM [1]: -4%
- inhibition at 5 µM (MMP-1): 6%
- inhibition at 5 µM (MMP-9): -8%
- inhibition at 5 µM (MMP-13): -10%
- inhibition at 5 µM (MMP-7): 31%
- inhibition at 5 µM (MMP-14): 4%
- inhibition at 5 µM (MMP-2): -3%

SMILES: O=C(CC1c2ccccc2S(=O)(=O)N1c1ccc(OCCN2CCOCC2)cc1)NO (stereo not drawn) [IX-052]
- inhibition at 100 µM [2]: 53%

SMILES: COc1ccc2c(c1)C(CC(=O)NO)N(c1ccccc1)S2(=O)=O (stereo not drawn) [IX-068]
- Av. HDAC Inhibition, % @100 (HDAC (HeLa cell extract)): 44%@100

SMILES: COc1cc2c(c(OC)c1OC)S(=O)(=O)N(c1ccccc1)C2CC(=O)NO (stereo not drawn) [IX-071]
- inhibition at 2 µM [2]: 10%

SMILES: COc1cc(OC)c2c(c1)C(CC(=O)NO)N(c1ccccc1)S2(=O)=O (stereo not drawn) [IX-072]
- inhibition at 2 µM [2]: 15%

SMILES: Cc1ccc2c(c1)S(=O)(=O)N(c1ccccc1)C2CC(=O)NO (stereo not drawn) [IX-073]
- inhibition at 2 µM [2]: 32%

SMILES: O=C(CC1c2ccc(Br)cc2S(=O)(=O)N1c1ccccc1)NO (stereo not drawn) [IX-074]
- inhibition at 2 µM [2]: 10%

SMILES: O=C(CC1c2ccccc2S(=O)(=O)N1c1cccc(CO)c1)NO (stereo not drawn) [IX-075]
- Av. HDAC Inhibition, % @100 (HDAC (HeLa cell extract)): 2%@100
- inhibition at 100 µM [2]: 64%
